From patent US20200397795A1, “PROPHYLACTIC TREATMENT OF VENOUS THROMBOEMBOLISM” (JANSSEN PHARMACEUTICALS, INC., priority 2019, published 2020)
Read-outs that look alike come from different tables or passages of the source.

Assays:
[1] = MAGELLAN (Study 1): pharmacokinetics; assay type: in vivo, human; conditions: for AUC: plasma
Experimental: A subset of approximately 125 subjects was to be stratified into 5 groups (of 25 subjects) based on the major diagnoses. The following pharmacokinetic (PK) parameters were calculated on Day 1 and Day 10: area under the plasma concentration curve (AUC), area under the curve normalized to body weight (AUCnorm), area under the curve for the expected dosing interval obtained after single dose administration (AUCτ), AUCτ, norm, maximum serum concentration (Cmax), maximum and normalized serum concentration (Cmax, norm), time to reach maximum concentration in plasma (tmax), half-life (t1/2), and total body clearance of drug from plasma calculated after oral administration (CL/F).

[2] = test system: symptomatic VTE and VTE-related death in high-risk, medically ill subjects; experiment: MARINER (Study 2): efficacy of rivaroxaban vs placebo for 45 days post-hospital discharge; assay type: in vivo, human; set-up: Primary efficacy outcome, absolute difference vs placebo / Primary efficacy outcome, relative risk reduction vs placebo: concentration or dose not given beside the values; conditions: for Primary efficacy outcome (symptomatic VTE and VTE-related death), n/N (%): CEC adjudicated
Description: The primary objective of Study 2 (MARINER) was to assess the efficacy and safety of rivaroxaban, compared with placebo in the prevention of symptomatic venous thromboembolism (VTE; lower extremity deep vein thrombosis [DVT] and non-fatal pulmonary embolism [PE]) and VTE-related death (death due to PE or death in which PE could not be ruled out as the cause) post-hospital discharge in high-risk, medically ill subjects.
This was a multicenter, prospective, randomized, double-blind, placebo-controlled, event-driven study conducted in multiple geographic regions (North America, South America, Eastern Europe, Western Europe, and Other locations) that evaluated rivaroxaban, compared with placebo, in the prevention of symptomatic VTE events and VTE-related deaths for a period of 45 days post-hospital discharge in high-risk, medically ill subjects. The study consisted of a screening phase, a 45-day double-blind treatment phase, and a 30-day safety follow-up period (which was also the end of study [EOS]). The total duration for a subject who completed the study (including the safety follow-up period) after randomization was 75 (±5) days.
The index hospitalization was at least 3 and no more than 10 consecutive days in duration. […] Subjects received thromboprophylaxis during the index hospitalization with low molecular weight heparin (LMWH) or unfractionated heparin (UFH).
Randomization occurred on the same day or the day after the subject left the hospital, and occurred at the hospital, clinic, or other discharge destination. Eligible subjects were to be randomly assigned (1:1) by strata (by creatinine clearance [CrCl] level [≥30-<50 mL/min versus ≥50 mL/min] and by country) to receive either rivaroxaban or placebo. Subjects with a baseline CrCl of ≥50 mL/min were to receive rivaroxaban 10 mg once daily (QD) or placebo QD. A dose adjustment to rivaroxaban 7.5 mg QD was to be implemented for subjects with a baseline CrCl of ≥30 to <50 mL/min. Study drug started at randomization (Day 1) and continued until Day 45 (inclusive). The subject was assessed 30 days later for safety follow-up.
Criteria for Evaluation: This was a clinical outcomes study. The primary efficacy outcome was the composite of all symptomatic VTE events and VTE-related death from randomization up to Day 45. Secondary efficacy outcomes were: VTE-related death; symptomatic VTE; the composite of symptomatic VTE and ACM; the composite of symptomatic VTE, MI, non-hemorrhagic stroke and CV death; and ACM.
The primary and secondary efficacy outcomes were analyzed based on the time from randomization to the first occurrence in the ITT analysis set and Up-to-Day 45 analysis phase. […] A Cox proportional hazards model, stratified by subjects with CrCl ≥30 to <50 mL/min versus subjects with CrCl ≥50 mL/min, with the treatment (as randomized) as the only covariate was used for each analysis. A 2-sided p-value was reported, and if it was less than the 2-sided alpha of 0.05, then superiority of the study drug was to be declared when the observed survival functions favored rivaroxaban. The point estimate and corresponding 95% confidence interval (CI) for the hazard ratio (HR; rivaroxaban to placebo) were provided based on the Cox proportional hazards model. To control the family-wise type I error rate at alpha of 0.05 (2-sided) in testing for efficacy outcomes, if superiority of rivaroxaban over placebo for the primary efficacy outcome was established, superiority of rivaroxaban over placebo on secondary outcomes was tested sequentially using a closed testing procedure in a hierarchical order, each at alpha of 0.05 (2-sided).

[3] = Up-to-Day 45, ITT, listed as rivaroxaban
[4] = as reported by the investigator

## O=C(NC[C@H]1CN(c2ccc(N3CCOCC3=O)cc2)C(=O)O1)c1ccc(Cl)s1 [Rivaroxaban, 5-chloro-N-({(5S)-2-oxo-3-[4-(3-oxo-4-morpholinyl)phenyl]-1,3,oxazolidin-5-yl}methyl)-2-thiophenecarboxamide]
[1]; Day 10, subjects with acute infectious disease
  Cmax: 178.9 ng/mL
[1]; human, oral, 10 mg, Day 1, overall, 10 mg
  AUC: 1640 ng·h/mL
[1]; human, oral, 10 mg, Day 10, overall, 10 mg
  AUC: 1360 ng·h/mL
[1]; human, oral, 10 mg, Day 10, subjects with CHF NYHA IV
  AUC: 1440 ng·h/mL
[1]; human, oral, 10 mg, Day 10, subjects with acute infectious disease
  AUC: 1190 ng·h/mL
[1]; human, serum, oral, 10 mg, Day 1, overall, 10 mg, read-out: Cmax
  Cmax: 176 ng/mL
[1]; human, serum, oral, 10 mg, Day 10, overall, 10 mg, read-out: Cmax
  Cmax: 189 ng/mL
[1]; human, serum, oral, 10 mg, Day 10, subjects with CHF NYHA IV, read-out: Cmax
  Cmax: 192 ng/mL
[2]; 7.5 mg dose stratum
  Primary efficacy outcome, HR vs placebo: 1.00
  Primary efficacy outcome, RRR vs placebo: 0%
[2]; 7.5 mg dose stratum, Up-to-Day 45, ITT
  Primary efficacy outcome, incidence: 1.64%
[2]; 10 mg dose stratum
  Primary efficacy outcome, HR vs placebo: 0.67
  Primary efficacy outcome, RRR vs placebo: 33%
[2]; 10 mg dose stratum, Up-to-Day 45, ITT
  Primary efficacy outcome, incidence: 0.65%
[2]; ITT
  Rehospitalization for symptomatic VTE within 30 days after randomization, HR vs placebo: 0.50
  Rehospitalization for symptomatic VTE within 30 days after randomization, incidence: 0.15%
[2]; Up-to-Day 45, ITT
  ACM, event rate: 1.19 100 pt-45 dy
  ACM, hazard ratio (95% CI) vs placebo: 0.80 (0.58, 1.09)
  Composite of symptomatic VTE and ACM, RRR vs placebo: 27%
  Composite of symptomatic VTE and ACM, absolute difference vs placebo: 0.48%
  Composite of symptomatic VTE and ACM, event rate: 1.31 100 pt-45 dy
  Composite of symptomatic VTE and ACM, hazard ratio (95% CI) vs placebo: 0.73 (0.54, 0.97)
  Composite of symptomatic VTE and ACM, n/N (%): 78/6007 (1.30) %
  Composite of symptomatic VTE, MI, non-hemorrhagic stroke and CV death, event rate: 1.58 100 pt-45 dy
  Composite of symptomatic VTE, MI, non-hemorrhagic stroke and CV death, hazard ratio (95% CI) vs placebo: 0.78 (0.60, 1.02)
  Composite of symptomatic VTE, MI, non-hemorrhagic stroke and CV death, n/N (%): 94/6007 (1.56) %
  Death (PE cannot be ruled out), event rate: 0.67 100 pt-45 dy
  Death (PE cannot be ruled out), hazard ratio (95% CI) vs placebo: 0.98 (0.63, 1.51)
  Death (PE cannot be ruled out), n/N (%): 40/6007 (0.67) %
  Death (PE), event rate: 0.05 100 pt-45 dy
  Death (PE), hazard ratio (95% CI) vs placebo: 0.60 (0.14, 2.51)
  Death (PE), n/N (%): 3/6007 (0.05) %
  MI, HR vs placebo: 1.36
  MI, incidence: 0.25%
  Non-hemorrhagic stroke, HR vs placebo: 0.63
  Non-hemorrhagic stroke, incidence: 0.32%
  Primary efficacy outcome, absolute difference vs placebo: 0.27%
  Primary efficacy outcome, event rate: 0.84 100 pt-45 dy
  Primary efficacy outcome, hazard ratio (95% CI) vs placebo: 0.76 (0.52, 1.09)
  Primary efficacy outcome, relative risk reduction vs placebo: 24%
  Symptomatic VTE (lower extremity DVT and non-fatal PE), n/N (%): 11/6007 (0.18) %
  Symptomatic VTE, RRR vs placebo: 56%
  Symptomatic VTE, absolute difference vs placebo: 0.24%
  Symptomatic VTE, event rate: 0.19 100 pt-45 dy
  Symptomatic VTE, hazard ratio (95% CI) vs placebo: 0.44 (0.22, 0.89)
  Symptomatic lower extremity DVT, RRR vs placebo: 69%
  Symptomatic lower extremity DVT, absolute difference vs placebo: 0.15%
  Symptomatic lower extremity DVT, event rate: 0.07 100 pt-45 dy
  Symptomatic lower extremity DVT, hazard ratio (95% CI) vs placebo: 0.31 (0.10, 0.94)
  Symptomatic lower extremity DVT, n/N (%): 4/6007 (0.07) %
  Symptomatic non-fatal PE, event rate: 0.12 100 pt-45 dy
  Symptomatic non-fatal PE, hazard ratio (95% CI) vs placebo: 0.47 (0.19, 1.14)
  Symptomatic non-fatal PE, n/N (%): 7/6007 (0.12) %
  Symptomatic upper extremity DVT, number (and incidence): no subject
  VTE-related death, event rate: 0.72 100 pt-45 dy
  VTE-related death, hazard ratio (95% CI) vs placebo: 0.93 (0.62, 1.42)
  VTE-related death, n/N (%): 43/6007 (0.72) %
  Primary efficacy outcome (symptomatic VTE and VTE-related death), n/N (%): 50/6007 (0.83) %
[2]; [3]
  Primary efficacy outcome (symptomatic VTE and VTE-related death), n/N (%): 0.83%
  ACM, hazard ratio (95% CI) vs placebo: 0.80
  ACM, n/N (%): 1.18%
  Composite of symptomatic VTE and ACM, hazard ratio (95% CI) vs placebo: 0.73
  Composite of symptomatic VTE and ACM, n/N (%): 1.30%
  Composite of symptomatic VTE, MI, non-hemorrhagic stroke and CV death, hazard ratio (95% CI) vs placebo: 0.78
  Composite of symptomatic VTE, MI, non-hemorrhagic stroke and CV death, n/N (%): 1.56%
  Primary efficacy outcome, hazard ratio (95% CI) vs placebo: 0.76
  Symptomatic VTE (lower extremity DVT and non-fatal PE), n/N (%): 0.18%
  Symptomatic VTE, hazard ratio (95% CI) vs placebo: 0.44
  Symptomatic lower extremity DVT, hazard ratio (95% CI) vs placebo: 0.31
  Symptomatic lower extremity DVT, n/N (%): 0.07%
  Symptomatic non-fatal PE, hazard ratio (95% CI) vs placebo: 0.47
  Symptomatic non-fatal PE, n/N (%): 0.12%
  VTE-related death, hazard ratio (95% CI) vs placebo: 0.93
  VTE-related death, n/N (%): 0.72%
[2]; [4]
  Primary efficacy outcome, HR vs placebo: 0.40
  Primary efficacy outcome, RRR vs placebo: 60%
  Primary efficacy outcome, absolute difference vs placebo: 0.37%
[2]; as reported by the investigator (post-hoc sensitivity analysis)
  Primary efficacy outcome, incidence: 0.25%
